Test results published in article PMC4232042 (Drug Design, Development and Therapy, 2014).

Target: Kv1.5 (Homo sapiens, UniProt P22460)
Assay: whole-cell patch clamp in HEK […] cells stably expressing Kv1.[…]
Format: cell-based

Kv1.5, sequence (P22460 whole entry): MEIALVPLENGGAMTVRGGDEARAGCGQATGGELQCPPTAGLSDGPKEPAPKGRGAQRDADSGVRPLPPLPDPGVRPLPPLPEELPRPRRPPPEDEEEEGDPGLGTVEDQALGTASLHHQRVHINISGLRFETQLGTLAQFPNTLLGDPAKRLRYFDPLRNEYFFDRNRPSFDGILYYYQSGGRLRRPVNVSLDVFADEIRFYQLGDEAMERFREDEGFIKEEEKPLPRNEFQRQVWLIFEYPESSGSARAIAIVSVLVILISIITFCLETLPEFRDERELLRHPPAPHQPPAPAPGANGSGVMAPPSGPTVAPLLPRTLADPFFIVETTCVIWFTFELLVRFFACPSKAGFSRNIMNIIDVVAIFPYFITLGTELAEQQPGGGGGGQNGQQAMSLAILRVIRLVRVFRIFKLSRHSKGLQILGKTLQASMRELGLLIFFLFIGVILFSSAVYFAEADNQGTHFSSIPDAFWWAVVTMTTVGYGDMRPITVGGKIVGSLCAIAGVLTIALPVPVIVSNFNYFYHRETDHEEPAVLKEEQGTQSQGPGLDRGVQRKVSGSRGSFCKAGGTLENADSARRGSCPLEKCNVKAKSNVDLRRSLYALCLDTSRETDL

Cc1ncc2n1-c1ccc(Cl)cc1C(c1ccccc1F)=NC2 [midazolam]
IC50: 17 ± 4.2 µM
